The source of these data is patent US6495593B1, “Compositions for preventing or treating adverse physiological effects associated with cardiac disease” (Dry Creek Nutrition, Inc., priority 1999, dated 2002).

Assay [1] in a line: In vitro hydroxyl radical scavenging assay (γ-irradiated coumarin-3-carboxylic acid). To be noted: 1 mM; 10^-5 M CCA, γ-irradiation. The procedure: Aqueous solution of coumarin-3-carboxylic acid (CCA) was diluted in PBS buffer, pH 7.4 to give a final concentration of 10^−5 M. Polymethylmethacrylate cuvettes containing 2.5 mL CCA solution were irradiated with ^137Cs γ-ray (dose rate 1.14 Gy/min) (MDS Nordian., Ontario, Canada) at room temperature. […] Fluorescence was measured at room temperature with a Perkin Elmer LS 50 fluorimeter (excitation 400 nm, emission 450 nm) (Collins et al., “Coumarin Chemical Dosimeter for Radiation Therapy,” Med. Phys., 21: 1741-1747 (1994)). […] The scavenging activity of the proanthocyanidin extract was compared against 1 mM DMSO.

A short description of assay [2]: In vitro peroxyl radical scavenging assay (AAPH / 5-/6-carboxyfluorescein). To be noted: 25 μg/mL; AAPH 2 mM. On the procedure:
Peroxyl radical scavenging activity was examined by adding proanthocyanidin to a peroxyl radical generating system (Makrigiorgos et al., “Novel Fluorescein-Based Flow Cytometric Method for Detection of Lipid Peroxidation,” Free Rad. Biol. Med., 22:93-100 (1997)). Peroxyl radicals were generated by dissolving 2,2′-azobis (2-amidinopropane) dihydrochloride (AAPH) in phosphate buffered saline (PBS) at 37° C. Scavenging activity of proanthocyanidin was compared with trolox (100 μM), a known peroxyl radical scavenger.

With `C[S+](C)[O-]` [DMSO, dimethyl sulfoxide], the “induction of 7-OH-CCA formation (hydroxyl radical scavenging)” value in assay [1] is recorded as “reduced the induction of 7-OH-CCA formation”.

For `Cc1c(C)c2c(c(C)c1O)CCC(C)(C(=O)O)O2` (centres unmarked) [trolox], in assay [2], the “peroxyl radical scavenging activity relative to proanthocyanidin 10 μg/mL” value is given as “comparable”.
